From ChEMBL document CHEMBL1155625, “Nostocyclyne A, a novel antimicrobial cyclophane from the cyanobacterium Nostoc sp” (2000)

Assays:
Assay type in all cases: functional
[1] = test system: Chlorophyta; assay: Inhibition of photosynthesis in green alga at 100 ug/mL
[2] = test system: Staphylococcus aureus; assay: Antimicrobial activity against Staphylococcus aureus measured per disk
[3] = test system: Escherichia coli; assay: Antimicrobial activity against Escherichia coli measured per disk

MIC [2]: 12.5 µg
MIC [3]: 10 µg
Compound: CCCC1CCCCCCCCCCCC#Cc2cc(O)c1c(O)c2 (stereo not drawn) [NOSTOCYCLYNE A]
inhibition at 100 µg/mL [1]: 5%
